Test results as given in PubChem BioAssay AID192 (DTP/NCI, 2004).
Several values for one entry are separate records, joined by “and”; a condition that tells them apart may be missing. Identical values can stand only once. Toxic doses and inconclusive results are not listed. How the source made its calls: active means survival T/C of 150% or more; inactive means T/C below 125% in these data.

System: BDF1 mice, B16 melanoma ip, median survival T/C
Assay: NCI In Vivo Anticancer Drug Screen. Data for tumor model B16 Melanoma (intraperitoneal) in B6D2F1 (BDF1) mice
Conditions: endpoint: median survival time, higher = longer survival
Description: The antitumor activity of compounds was measured in mice bearing transplantable tumors. Survival or tumor size were measured and the results are expressed as the measurement made in the treated group (T) divided by the measurement made in the vehicle treated control group (C). The tumor model used in this assay is B16 Melanoma (intraperitoneal) in B6D2F1 (BDF1) mice

[1] = dose: 12.5 mg/kg/injection, schedule: Q04DX003 (ip), vehicle: saline with Tween-80
[2] = dose: 25.0 mg/kg/injection, schedule: Q04DX003 (ip), vehicle: saline with Tween-80

Measured: T/C

CC(C)Cc1ccc(C(=O)O)cc1
inactive: dose: 75.0 mg/kg/injection, schedule: Q04DX003 (ip), vehicle: Klucel (hydroxypropylcellulose) (HPC) 102 % of control | dose: 150.0 mg/kg/injection, schedule: Q04DX003 (ip), vehicle: Klucel (hydroxypropylcellulose) (HPC) 105 % of control | dose: 300.0 mg/kg/injection, schedule: Q04DX003 (ip), vehicle: Klucel (hydroxypropylcellulose) (HPC) 111 % of control

CN(C)CCCN=Cc1ccc(O)cc1O.CN(C)CCCN=Cc1ccc(O)cc1O.[Ni+2]
inactive: dose: 6.25 mg/kg/injection, schedule: Q01DX009 (ip), vehicle: saline with Tween-80 95 % of control | dose: 12.5 mg/kg/injection, schedule: Q01DX009 (ip), vehicle: saline with Tween-80 95 % of control | [1] 117 % of control | dose: 25.0 mg/kg/injection, schedule: Q01DX009 (ip), vehicle: saline with Tween-80 92 % of control | [2] 86 % of control

C#CCOCC1CN(C)C(=O)O1 (centres undefined)
inactive: dose: 25.0 mg/kg/injection, schedule: Q01DX009 (ip), vehicle: saline 109 % of control | dose: 100.0 mg/kg/injection, schedule: Q01DX009 (ip), vehicle: saline 102 % of control | dose: 200.0 mg/kg/injection, schedule: Q01DX009 (ip), vehicle: saline 109 % of control | dose: 400.0 mg/kg/injection, schedule: Q01DX009 (ip), vehicle: saline 107 % of control

CCCCCCCCCCCCCCCCCC(=O)[O][Pb]([CH3])([CH3])[CH3]
inactive: dose: 1.25 mg/kg/injection, schedule: Q01DX009 (ip), vehicle: Klucel (hydroxypropylcellulose) (HPC) 99 % of control | dose: 2.5 mg/kg/injection, schedule: Q01DX009 (ip), vehicle: Klucel (hydroxypropylcellulose) (HPC) 99 % of control | dose: 5.0 mg/kg/injection, schedule: Q01DX009 (ip), vehicle: Klucel (hydroxypropylcellulose) (HPC) 91 % of control

NC(CNC(=O)C(Cl)Cl)C(=O)O (centres undefined)
inactive: dose: 6.25 mg/kg/injection, schedule: Q01DX009 (ip), vehicle: water 93 % of control | dose: 12.5 mg/kg/injection, schedule: Q01DX009 (ip), vehicle: water 105 % of control | dose: 25.0 mg/kg/injection, schedule: Q01DX009 (ip), vehicle: water 100 % of control | dose: 50.0 mg/kg/injection, schedule: Q01DX009 (ip), vehicle: water 98 % of control | dose: 100.0 mg/kg/injection, schedule: Q01DX009 (ip), vehicle: water 89 % of control

COC(=O)C(CCCN=C(N)N)NC(=O)OCc1ccccc1 (centres undefined)
inactive: dose: 100.0 mg/kg/injection, schedule: Q04DX003 (ip), vehicle: saline 100 % of control | dose: 200.0 mg/kg/injection, schedule: Q04DX003 (ip), vehicle: saline 95 % of control

Cc1ccc(C(=O)C=C(C(F)(F)F)C(F)(F)F)cc1
inactive: dose: 6.25 mg/kg/injection, schedule: Q04DX003 (ip), vehicle: saline with Tween-80 111 % of control | [1] 100 % of control | [2] 105 % of control

C/C(Cc1ccccc1)=N\[N+](C)(C)C
inactive: dose: 75.0 mg/kg/injection, schedule: Q04DX003 (ip), vehicle: saline 109 % of control | dose: 150.0 mg/kg/injection, schedule: Q04DX003 (ip), vehicle: saline 104 % of control

C/C(=C\c1ccccc1)C(=O)c1ccc(-c2ccccc2)cc1
inactive: dose: 100.0 mg/kg/injection, schedule: Q04DX003 (ip), vehicle: Klucel (hydroxypropylcellulose) (HPC) 103 % of control | dose: 200.0 mg/kg/injection, schedule: Q04DX003 (ip), vehicle: Klucel (hydroxypropylcellulose) (HPC) 95 % of control | dose: 400.0 mg/kg/injection, schedule: Q04DX003 (ip), vehicle: Klucel (hydroxypropylcellulose) (HPC) 106 % of control

O=Cc1cc2c(cc1Cl)OCO2
inactive: dose: 100.0 mg/kg/injection, schedule: Q01DX009 (ip), vehicle: saline with Tween-80 107 % of control | dose: 200.0 mg/kg/injection, schedule: Q01DX009 (ip), vehicle: saline with Tween-80 101 % of control | dose: 400.0 mg/kg/injection, schedule: Q01DX009 (ip), vehicle: saline with Tween-80 99 % of control

CCOc1ccc(NC(=O)c2cccc(C(=O)Nc3ccc(OCC)cc3)c2)cc1
inactive: dose: 100.0 mg/kg/injection, schedule: Q01DX009 (ip), vehicle: Klucel (hydroxypropylcellulose) (HPC) 103 % of control | dose: 200.0 mg/kg/injection, schedule: Q01DX009 (ip), vehicle: Klucel (hydroxypropylcellulose) (HPC) 93 % of control | dose: 400.0 mg/kg/injection, schedule: Q01DX009 (ip), vehicle: Klucel (hydroxypropylcellulose) (HPC) 86 % of control

CCCCCCC(=O)NC1=C(N2CC2)C(=O)C(NC(=O)CCCCCC)=C(N2CC2)C1=O
inactive: dose: 6.25 mg/kg/injection, schedule: Q01DX009 (ip), vehicle: Klucel (hydroxypropylcellulose) (HPC) 110 % of control | dose: 12.5 mg/kg/injection, schedule: Q01DX009 (ip), vehicle: Klucel (hydroxypropylcellulose) (HPC) 115 % of control and 120 % of control | dose: 25.0 mg/kg/injection, schedule: Q01DX009 (ip), vehicle: Klucel (hydroxypropylcellulose) (HPC) 100 % of control
